Measured values reported in the supplement of paper PMC7840683.
Structures can show the parent of a compound that is named as a salt. ± gives the standard deviation of the averaged measurements.

Tested on: HepaRG
Assay: LDH release cytotoxicity, % of total lysis control; higher = more cytotoxic
Details: 48 h
Procedure, shortened: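 Eight-point half-log series of test chemicals, the highest at 100 µM, were given in duplicate for 48 h to single-lot HepaRG cells on collagen I-coated 96-well plates in serum-free induction medium with 0.5% DMSO. A Tecan Safire read resorufin fluorescence from CytoTox-ONE as a measure of LDH in 50 µL spent medium, with 0.1% Triton X in total lysis wells. Percent cytotoxicity was normalized to on-plate vehicle and total lysis controls and averaged over the duplicates.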

## Cc1nc(-c2ccc3c(c2)CCN(CCC2CCC(NC(=O)C=Cc4ccc(F)cc4)CC2)CC3)no1 (configuration not stated)
0.03162 µM
  LDH release cytotoxicity: 0.287 ± 2.3%
0.1 µM
  LDH release cytotoxicity: -0.381 ± 0.15%
0.3162278 µM
  LDH release cytotoxicity: -0.128 ± 1.3%
1 µM
  LDH release cytotoxicity: -0.7917 ± 0.0065%
3.16228 µM
  LDH release cytotoxicity: -0.696 ± 0.47%
10 µM
  LDH release cytotoxicity: -0.292 ± 0.19%
31.6228 µM
  LDH release cytotoxicity: -0.793 ± 0.21%
100 µM
  LDH release cytotoxicity: -0.791 ± 0.54%

## CC12CCC3C(CCC4CC(=O)CCC43C)C1CCC2O (stereo not drawn) [5alpha-Dihydrotestosterone]
0.0322552 µM
  LDH release cytotoxicity: -1.49 ± 0.51%
0.102 µM
  LDH release cytotoxicity: -1.05 ± 0.64%
0.322552 µM
  LDH release cytotoxicity: -1.02 ± 0.95%
1.02 µM
  LDH release cytotoxicity: -0.777 ± 0.65%
3.2255232 µM
  LDH release cytotoxicity: -0.0601 ± 0.54%
10.2 µM
  LDH release cytotoxicity: 0.259 ± 0.88%
32.2552 µM
  LDH release cytotoxicity: 2.27 ± 0.7%
102 µM
  LDH release cytotoxicity: 7.51 ± 0.71%

## CN(CC(CC[N+]12CCC(C3CCCCC3)(CC1)CC2)c1ccc(Cl)c(Cl)c1)C(=O)c1cc(C(F)(F)F)cc(C(F)(F)F)c1 (configuration not stated)
0.03162 µM
  LDH release cytotoxicity: -0.117 ± 0.43%
0.1 µM
  LDH release cytotoxicity: -0.956 ± 0.68%
0.3162278 µM
  LDH release cytotoxicity: -1.24 ± 0.014%
1 µM
  LDH release cytotoxicity: -1.39 ± 0.29%
3.16228 µM
  LDH release cytotoxicity: -1.45 ± 0.36%
10 µM
  LDH release cytotoxicity: 1.28 ± 0.3%
31.6228 µM
  LDH release cytotoxicity: 57.3 ± 4%
100 µM
  LDH release cytotoxicity: 84.4 ± 3.8%

## N#CN [Cyanamide]
0.03162 µM
  LDH release cytotoxicity: -0.717 ± 0.38%
0.1 µM
  LDH release cytotoxicity: -2.37 ± 0.27%
0.3162278 µM
  LDH release cytotoxicity: -1.74 ± 0.7%
1 µM
  LDH release cytotoxicity: -1.73 ± 0.39%
3.16228 µM
  LDH release cytotoxicity: -2.07 ± 0.26%
10 µM
  LDH release cytotoxicity: -1.59 ± 0.22%
31.6228 µM
  LDH release cytotoxicity: -1.21 ± 0.71%
100 µM
  LDH release cytotoxicity: -0.0755 ± 0.84%

## CON(C)C(=O)Nc1ccc(Cl)c(Cl)c1 [Linuron]
0.03162 µM
  LDH release cytotoxicity: -1.04 ± 0.089%
0.1 µM
  LDH release cytotoxicity: -1.18 ± 0.7%
0.3162278 µM
  LDH release cytotoxicity: -1.18 ± 0.5%
1 µM
  LDH release cytotoxicity: -0.927 ± 0.94%
3.16228 µM
  LDH release cytotoxicity: -1.44 ± 0.95%
10 µM
  LDH release cytotoxicity: -0.708 ± 0.44%
31.6228 µM
  LDH release cytotoxicity: 0.755 ± 1%
100 µM
  LDH release cytotoxicity: 0.919 ± 1.2%

## CNCc1ccc(NC(=O)c2c[nH]c3c2C(=O)CCC3)cc1
0.03162 µM
  LDH release cytotoxicity: -1.87 ± 1.2%
0.1 µM
  LDH release cytotoxicity: -0.925 ± 0.22%
0.3162278 µM
  LDH release cytotoxicity: -1.24 ± 0.49%
1 µM
  LDH release cytotoxicity: -1.23 ± 0.55%
3.16228 µM
  LDH release cytotoxicity: -1.06 ± 0.37%
10 µM
  LDH release cytotoxicity: -0.719 ± 0.61%
31.6228 µM
  LDH release cytotoxicity: -0.723 ± 0.24%
100 µM
  LDH release cytotoxicity: -1.06 ± 0.15%

## CCOC(=O)C(C)(C)Oc1ccc(Cl)cc1 [Clofibrate]
0.03162 µM
  LDH release cytotoxicity: -0.811 ± 0.59%
0.1 µM
  LDH release cytotoxicity: -0.737 ± 0.38%
0.3162278 µM
  LDH release cytotoxicity: -1.03 ± 0.3%
1 µM
  LDH release cytotoxicity: -0.873 ± 1.4%
3.16228 µM
  LDH release cytotoxicity: -1.56 ± 0.66%
10 µM
  LDH release cytotoxicity: -0.987 ± 0.99%
31.6228 µM
  LDH release cytotoxicity: -0.0208 ± 0.16%
100 µM
  LDH release cytotoxicity: 1.51 ± 0.15%

## COC(=O)c1ccc(C(=O)OC)cc1 [Dimethyl terephthalate]
0.03162 µM
  LDH release cytotoxicity: 0.0234 ± 1%
0.1 µM
  LDH release cytotoxicity: -0.391 ± 1.6%
0.3162278 µM
  LDH release cytotoxicity: -1.12 ± 0.61%
1 µM
  LDH release cytotoxicity: -0.654 ± 0.052%
3.16228 µM
  LDH release cytotoxicity: -0.533 ± 0.33%
10 µM
  LDH release cytotoxicity: 0.0948 ± 0.34%
31.6228 µM
  LDH release cytotoxicity: 0.365 ± 0.88%
100 µM
  LDH release cytotoxicity: 2.87 ± 0.72%

## CC(C)(C)C(O)C(Oc1ccc(Cl)cc1)n1cncn1 (configuration not stated) [Triadimenol]
0.03162 µM
  LDH release cytotoxicity: -1.62 ± 0.58%
0.1 µM
  LDH release cytotoxicity: -2.06 ± 0.53%
0.3162278 µM
  LDH release cytotoxicity: -1.64 ± 1.5%
1 µM
  LDH release cytotoxicity: -1.25 ± 0.42%
3.16228 µM
  LDH release cytotoxicity: -1.3 ± 0.73%
10 µM
  LDH release cytotoxicity: -0.0607 ± 0.57%
31.6228 µM
  LDH release cytotoxicity: -0.253 ± 0.65%
100 µM
  LDH release cytotoxicity: 0.57 ± 0.18%

## CCOC(=O)OC(C)OC(=O)c1ccc2c(c1)cc(C(=O)NC1CCN(C(C)C)CC1)n2Cc1cc(-c2ccc(Cl)s2)on1 (configuration not stated) [AVE6324]
0.02988 µM
  LDH release cytotoxicity: -0.39 ± 1.6%
0.0945 µM
  LDH release cytotoxicity: -0.573 ± 0.22%
0.298835 µM
  LDH release cytotoxicity: -0.553 ± 1.2%
0.945 µM
  LDH release cytotoxicity: -1.09 ± 0.69%
2.98835 µM
  LDH release cytotoxicity: -0.186 ± 0.77%
9.45 µM
  LDH release cytotoxicity: 1.15 ± 0.64%
29.8835 µM
  LDH release cytotoxicity: 1.55 ± 1.8%
94.5 µM
  LDH release cytotoxicity: 48.4 ± 7.1%

## CN(C)NC(=O)CCC(=O)O [Daminozide]
0.03162 µM
  LDH release cytotoxicity: -1.88 ± 0.43%
0.1 µM
  LDH release cytotoxicity: -1.67 ± 0.13%
0.3162278 µM
  LDH release cytotoxicity: -1.27 ± 0.85%
1 µM
  LDH release cytotoxicity: -0.212 ± 2.1%
3.16228 µM
  LDH release cytotoxicity: -1.11 ± 0.04%
10 µM
  LDH release cytotoxicity: -0.0868 ± 1%
31.6228 µM
  LDH release cytotoxicity: 0.553 ± 0.48%
100 µM
  LDH release cytotoxicity: 1.58 ± 0.84%

## O=C(c1ccc(OCCN2CCCCC2)cc1)c1c(-c2ccc(O)cc2)sc2cc(O)ccc12 [Raloxifene hydrochloride]
0.03162 µM
  LDH release cytotoxicity: -1.32 ± 0.65%
0.1 µM
  LDH release cytotoxicity: -1.13 ± 1.1%
0.3162278 µM
  LDH release cytotoxicity: -0.881 ± 0.13%
1 µM
  LDH release cytotoxicity: -1.8 ± 0.23%
3.16228 µM
  LDH release cytotoxicity: -2.08 ± 1.1%
10 µM
  LDH release cytotoxicity: -1.62 ± 0.17%
31.6228 µM
  LDH release cytotoxicity: -1.9 ± 0.18%
100 µM
  LDH release cytotoxicity: 73.39 ± 0.7%

## CN(C)c1nc(=O)n(C2CCCCC2)c(=O)n1C [Hexazinone]
0.03162 µM
  LDH release cytotoxicity: -1.77 ± 0.1%
0.1 µM
  LDH release cytotoxicity: -1.77 ± 0.46%
0.3162278 µM
  LDH release cytotoxicity: 0.416 ± 1.9%
1 µM
  LDH release cytotoxicity: -2.14 ± 0.28%
3.16228 µM
  LDH release cytotoxicity: -0.406 ± 1.8%
10 µM
  LDH release cytotoxicity: -0.642 ± 0.23%
31.6228 µM
  LDH release cytotoxicity: -1.37 ± 0.81%
100 µM
  LDH release cytotoxicity: 0.813 ± 0.03%

## Cc1ccc(C)c(C)c1 [1,2,4-Trimethylbenzene]
0.03162 µM
  LDH release cytotoxicity: -1.1 ± 0.13%
0.1 µM
  LDH release cytotoxicity: -1.09 ± 0.14%
0.3162278 µM
  LDH release cytotoxicity: -1.49 ± 0.63%
1 µM
  LDH release cytotoxicity: -1.38 ± 0.46%
3.16228 µM
  LDH release cytotoxicity: -0.646 ± 0.4%
10 µM
  LDH release cytotoxicity: -0.854 ± 0.4%
31.6228 µM
  LDH release cytotoxicity: 0.161 ± 0.23%
100 µM
  LDH release cytotoxicity: 1.55 ± 0.46%

## CCOC(=O)COc1cc(-c2nn(C)c(OC(F)F)c2Cl)c(F)cc1Cl [Pyraflufen-ethyl]
0.03162 µM
  LDH release cytotoxicity: 0.0981 ± 1.6%
0.1 µM
  LDH release cytotoxicity: -2.14 ± 0.14%
0.3162278 µM
  LDH release cytotoxicity: -0.894 ± 0.076%
1 µM
  LDH release cytotoxicity: -0.96 ± 1.1%
3.16228 µM
  LDH release cytotoxicity: -1.01 ± 0.6%
10 µM
  LDH release cytotoxicity: -0.751 ± 0.049%
31.6228 µM
  LDH release cytotoxicity: 0.45 ± 0.72%
100 µM
  LDH release cytotoxicity: 1.13 ± 1.6%

## Cc1nc(-c2ccccn2)ncc1C(=O)Nn1cc(C)c2cc(F)ccc21
0.0295673 µM
  LDH release cytotoxicity: -0.89 ± 0.73%
0.0935 µM
  LDH release cytotoxicity: -1.26 ± 0.34%
0.295673 µM
  LDH release cytotoxicity: -0.0753 ± 0.68%
0.935 µM
  LDH release cytotoxicity: -1.71 ± 0.6%
2.95673 µM
  LDH release cytotoxicity: -2.8 ± 0.042%
9.35 µM
  LDH release cytotoxicity: -2.48 ± 0.043%
29.5673 µM
  LDH release cytotoxicity: -2.73 ± 0.47%
93.5 µM
  LDH release cytotoxicity: -1.5 ± 0.84%

## COP(=S)(OC)Oc1ccc(SC)c(C)c1 [Fenthion]
0.03162 µM
  LDH release cytotoxicity: -0.428 ± 0.68%
0.1 µM
  LDH release cytotoxicity: -0.733 ± 0.38%
0.3162278 µM
  LDH release cytotoxicity: -0.879 ± 0.25%
1 µM
  LDH release cytotoxicity: -0.217 ± 1%
3.16228 µM
  LDH release cytotoxicity: -0.561 ± 0.56%
10 µM
  LDH release cytotoxicity: 0.173 ± 0.094%
31.6228 µM
  LDH release cytotoxicity: 0.52 ± 0.028%
100 µM
  LDH release cytotoxicity: 2.37 ± 0.83%

## ClC1=C(Cl)C2(Cl)C3C4CC(C5OC45)C3C1(Cl)C2(Cl)Cl (configuration not stated) [Dieldrin]
0.03162 µM
  LDH release cytotoxicity: -0.556 ± 0.44%
0.1 µM
  LDH release cytotoxicity: -1.67 ± 0.84%
0.3162278 µM
  LDH release cytotoxicity: -1.33 ± 0.11%
1 µM
  LDH release cytotoxicity: -1.987 ± 0.015%
3.16228 µM
  LDH release cytotoxicity: -2.14 ± 0.65%
10 µM
  LDH release cytotoxicity: -0.0152 ± 1.5%
31.6228 µM
  LDH release cytotoxicity: -0.473 ± 0.01%
100 µM
  LDH release cytotoxicity: 2.21 ± 0.079%

## O=S(=O)(O)c1ccc(N=Nc2c(O)ccc3cc(S(=O)(=O)O)ccc23)cc1 [FD&C Yellow 6]
0.03162 µM
  LDH release cytotoxicity: -2.21 ± 0.52%
0.1 µM
  LDH release cytotoxicity: -2.28 ± 0.12%
0.3162278 µM
  LDH release cytotoxicity: -3.01 ± 0.6%
1 µM
  LDH release cytotoxicity: -3.07 ± 0.99%
3.16228 µM
  LDH release cytotoxicity: -4.37 ± 0.34%
10 µM
  LDH release cytotoxicity: -4.81 ± 0.16%
31.6228 µM
  LDH release cytotoxicity: -4.8 ± 0.5%
100 µM
  LDH release cytotoxicity: -4.65 ± 0.44%
